How the values were obtained:
Assay type in all cases: functional, organism-based
[1] = system: Saccharomyces cerevisiae; assay: Antimicrobial activity against Saccharomyces cerevisiae RS321NpRAD52 in presence of glucose
[2] = system: Saccharomyces cerevisiae; assay: Antimicrobial activity against Saccharomyces cerevisiae RS321NpRAD52 in presence of galactose
[3] = system: Saccharomyces cerevisiae; assay: Antimicrobial activity against Saccharomyces cerevisiae RS321NYCp50 in presence of galactose

IC50 [1]: 0.05 mg/L | IC50 [2]: 115 mg/L | IC50 [3]: 0.2 mg/L
SMILES: CN1C(=O)C(=O)c2cc3c(c4c2c1cc1ccccc14)OCO3 [CEPHARADIONE A]

Source: ChEMBL document CHEMBL1151250, “A DNA-damaging oxoaporphine alkaloid from Piper caninum” (J Nat Prod, 2004)
